Values after ≈ are worked out from the molar mass of the structure shown. Where a name gives a salt, the structure may show the parent alone. Read-outs that look alike come from different tables or passages of the source.
Assays:
[1] = system: Isoliertes Meerschweinchenherz; assay: Isolated guinea pig heart (Langendorff method); parameters: species or system Meerschweinchen; conditions: Cavia porcellus; for activation at 0.01 mg: Dosis 10 µg injected into the aorta; for activation at 0.03 mg: Dosis 30 µg injected into the aorta
Text: 1. Isoliertes Meerschweinchenherz (Langendorff-Methode)
Es wird ein Meerschweinchen männlichen oder weiblichen Geschlechts mit einem Gewicht zwischen 300 und 400 g getötet und das Herz mit einem kleinen Teil der Aorta entnommen. Das Herz wird umgehend in einen Perfusionsapparat gebracht, in dem die Aorta auf der Glaskanüle fixiert wird. Die aus oxygenierter Ringerlösung bestehende Perfusionslösung wird bei konstantem Druck aus dem Behälter zugeführt, der durch aus dem Thermostat zirkulierendes Wasser auf 37°C angewärmt wird. Die zu untersuchenden Verbindungen der Erfindung werden zur Herstellung einer Lösung mit bekannter Konzentration unter Verwendung stöchiometrischer 0,1 n HC1 bzw. deren Salze direkt in Wasser gelöst. Die erhaltene Lösung wird durch eine Polyäthylenkanüle direkt in die Aorta injiziert und die Wirkungen auf die Kontraktionskraft, Herzfrequenz und Koronardurchblutung auf einem 3-Kanal-Physioscribe-Rekorder aufgezeichnet. Die prozentuale Zu- oder Abnahme der inotropen Wirkung wird nach dem intialen Ausgangswert berechnet.

Meerschweinchen-Vorhof = assay: Electrically stimulated left atrium, contractile force; conditions: contractile force of electrically stimulated left atrium, recorded 7 to 10 min
Text: 2. Elektrisch stimulierter linker Vorhof
Es wird ein Meerschweinchen männlichen oder weiblichen Geschlechts mit einem Gewicht von 400 g getötet, das Herz entnommen und bei Zimmertemperatur in Ringerlösung eingebracht. Dann wird der linke Vorhof isoliert, an einem Organhalter befestigt und das Präparat in ein Organbad mit Ringerlösung von Zimmertemperatur gebracht. In das Organbad wird ein lebhafter Strom eines Gemisches von Kohlendioxid und Sauerstoff (95 % 02 und 5 % C02) geleitet. Dann wird der linke Vorhof elektrisch stimuliert. Anschließend wird aus einer der erfindungsgemäßen Verbindungen oder ih- rem Salz gegebenenfalls unter Verwendung von stöchiometrischer wäßriger 0,1 n HC1-Lösung eine wäßrige Lösung bekannter Konzentrationen hergestellt.
Diese Lösung wird dem Bad zugesetzt und die Kontraktionskraft des Vorhofes 7 bis 10 Minuten lang auf einem 4-Kanal-Kohden-Rekorder registriert. Die Wirkung wird aus den ermittelten Daten als EC50 berechnet angegeben.

Narkotisierter Hund = assay: In vivo test in the anaesthetised dog (left ventricular dp/dt max); parameters: species or system Beagle-Hunde; conditions: injected into the femoral vein, pentobarbital anaesthesia; for ED50: Canis lupus familiaris, iv
Description: 3. In vivo-Tests am narkotisierten Hund
Beagle-Hunde beiderlei Geschlechts mit einem Gewicht zwischen 10 und 15 kg werden mit Na-Pentobarbitol (35 mg/kg, i.v.) narkotisiert. Nach Einführen eines Endotrachealtubus werden die Femoralarterie und -vene mit einer Kanüle zur Messung des Blutdrucks bzw. zur Verabreichung von Medikamenten versehen. Der Druck des linken Ventrikels wird mit Hilfe eines Millar-Katheters gemessen und dp/dt max wird berechnet mit einem Hugo-Sachs-Differentiometer. Die Herzfrequenz wird mit Hilfe eines Kardiotachometers aus ECG-Signalen bestimmt. Alle kontinuierlich gemessenen Parameter werden mit einem Hellige-Sechs-Kanal-Recorder aufgezeichnet.
Die zu untersuchenden erfindungsgemäßen Verbindungen werden in destilliertem Wasser gelöst. In allen Experimenten werden 1%ige Lösungen verwendet. Die Lösungen werden in die Femoralvene injiziert und die Dosis-Wirkung-Relation berechnet.

Augeninnendruck (IOP) = assay: Intraocular pressure in the conscious rabbit; type: in vivo, Kaninchen; conditions: for Senkung des IOP: percent decrease from baseline; for Dauer: duration of the IOP-lowering effect
Text: Messung des Augeninnendruckes am wachen Kaninchen
Für die Untersuchung wird ein männliches oder weibliches Kaninchen mit einem Gewicht von 2 bis 3 k^g ausgewählt. Der Augeninnendruck (IOP) wird nach vorheriger Hornhautanästhesie mit 2 % Novocain-Lösung mit einem Schioetz-Tonometer gemessen. Zur Herstellung einer 2 %igen wäßrigen Lösung wird eine Verbindung der Formel I unter Verwendung von stöchiometrischer wäßriger 0,1 n HCI-Lösung oder ein Salz einer solchen Verbindung direkt in Wasser gelöst. […] Der IOP wird in Abständen von 0,5, 1, 2, 3, 4 und 5 Stunden gemessen. Die prozentuale Abnahme des IOP wird anhand des Ausgangswertes berechnet.

[2] = read-out: % Zunahme der Chronotropen Wirkung
[3] = read-out: % Zunahme der Koronardurchblutung
[4] = relative to initial baseline, read-out: % Zunahme der Inotropen Wirkung
[5] = Dosis 2 %, 100 µl instilled into one eye

## C=C[C@@]1(C)CC(=O)[C@]2(O)[C@@]3(C)[C@@H](O)CCC(C)(C)[C@@H]3[C@H](OC(=O)CN3CCCCC3)[C@H](O)[C@@]2(C)O1
[1]; [2]
  activation at 0.01 mg: 27%
[1]; [3]
  activation at 0.01 mg: 40%
[1]; [4]
  activation at 0.01 mg: 32%
Meerschweinchen-Vorhof
  EC50: 2.3 µg/mL (≈ 4.66 µM)

## C=C[C@@]1(C)CC(=O)[C@]2(O)[C@@]3(C)[C@@H](O)CCC(C)(C)[C@@H]3[C@H](OC(=O)C(C)N3CCOCC3)[C@H](O)[C@@]2(C)O1 (some centres unmarked)
[1]; [2]
  activation at 0.01 mg: 20%
[1]; [3]
  activation at 0.01 mg: 11%
[1]; [4]
  activation at 0.01 mg: 45%
Meerschweinchen-Vorhof
  EC50: 4.7 µg/mL (≈ 9.22 µM)

## C=C[C@@]1(C)CC(=O)[C@]2(O)[C@@]3(C)[C@@H](O)CCC(C)(C)[C@@H]3[C@H](O)[C@H](OC(=O)CN3CCCCC3)[C@@]2(C)O1
[1]; [2]
  activation at 0.01 mg: 1%
[1]; [3]
  activation at 0.01 mg: 31%
[1]; [4]
  activation at 0.01 mg: 18%
Meerschweinchen-Vorhof
  EC50: 22 µg/mL (≈ 44.6 µM)

## C=C[C@@]1(C)CC(=O)[C@]2(O)[C@@]3(C)[C@@H](O)CCC(C)(C)[C@@H]3[C@H](O)[C@H](OC(=O)CCCN3CCOCC3)[C@@]2(C)O1
Meerschweinchen-Vorhof
  EC50: 3 µg/mL (≈ 5.73 µM)

## C=C[C@@]1(C)CC(=O)[C@]2(O)[C@@]3(C)[C@@H](O)CCC(C)(C)[C@@H]3[C@H](O)[C@H](OC(=O)CN3CCOCC3)[C@@]2(C)O1
[1]; [2]
  activation at 0.01 mg: 35%
[1]; [3]
  activation at 0.01 mg: 100%
[1]; [4]
  activation at 0.01 mg: 37%
Meerschweinchen-Vorhof
  EC50: 0.35 µg/mL (≈ 0.706 µM)

## C=C[C@@]1(C)CC(=O)[C@]2(O)[C@@]3(C)[C@@H](O)CCC(C)(C)[C@@H]3[C@H](OC(=O)CN3CCOCC3)[C@H](O)[C@@]2(C)O1
[1]; [2]
  activation at 0.03 mg: 34%
[1]; [3]
  activation at 0.03 mg: 35%
[1]; [4]
  activation at 0.03 mg: 23%
Meerschweinchen-Vorhof
  EC50: 0.5 µg/mL (≈ 1.01 µM)
Narkotisierter Hund
  ED50: 0.11 mg/kg

## C=C[C@@]1(C)CC(=O)[C@]2(O)[C@@]3(C)[C@@H](O)CCC(C)(C)[C@@H]3[C@H](OC(=O)CN3CCC(C)CC3)[C@H](O)[C@@]2(C)O1
Meerschweinchen-Vorhof
  EC50: 2.6 µg/mL (≈ 5.12 µM)
Narkotisierter Hund
  ED50: 0.39 mg/kg

## C=C[C@@]1(C)CC(=O)[C@]2(O)[C@@]3(C)[C@@H](O)CCC(C)(C)[C@@H]3[C@H](O)[C@H](OC(=O)CN3CCCC3)[C@@]2(C)O1
[1]; [2]
  activation at 0.01 mg: 24%
[1]; [3]
  activation at 0.01 mg: 57%
[1]; [4]
  activation at 0.01 mg: 38%
Meerschweinchen-Vorhof
  EC50: 1.8 µg/mL (≈ 3.75 µM)
Narkotisierter Hund
  ED50: 0.5 mg/kg

## C=C[C@@]1(C)CC(=O)[C@]2(O)[C@@]3(C)[C@@H](O)CCC(C)(C)[C@@H]3[C@H](OC(=O)CN3CCC(NC(=O)c4ccccc4)CC3)[C@H](O)[C@@]2(C)O1
Meerschweinchen-Vorhof
  EC50: 1.2 µg/mL (≈ 1.96 µM)

## C=C[C@@]1(C)CC(=O)[C@]2(O)[C@@]3(C)[C@@H](O)CCC(C)(C)[C@@H]3[C@H](OC(=O)CN3CCCC3)[C@H](O)[C@@]2(C)O1
Meerschweinchen-Vorhof
  EC50: 3 µg/mL (≈ 6.26 µM)

## C=C[C@@]1(C)CC(=O)[C@]2(O)[C@@]3(C)[C@@H](O)CCC(C)(C)[C@@H]3[C@H](O)[C@H](OC(=O)CN3CCSCC3)[C@@]2(C)O1
Meerschweinchen-Vorhof
  EC50: 30 µg/mL (≈ 58.6 µM)

## C=C[C@@]1(C)CC(=O)[C@]2(O)[C@@]3(C)[C@@H](O)CCC(C)(C)[C@@H]3[C@H](OC(=O)CN3CCSCC3)[C@H](O)[C@@]2(C)O1
Meerschweinchen-Vorhof
  EC50: 1.5 µg/mL (≈ 2.93 µM)
Narkotisierter Hund
  ED50: > 3 mg/kg

## C=C[C@@]1(C)CC(=O)[C@]2(O)[C@@]3(C)[C@@H](O)CCC(C)(C)[C@@H]3[C@H](O)[C@H](OC(=O)CN3CCCC(C)C3)[C@@]2(C)O1 (some centres unmarked)
Meerschweinchen-Vorhof
  EC50: 30 µg/mL (≈ 59.1 µM)

## C=C[C@@]1(C)CC(=O)[C@]2(O)[C@@]3(C)[C@@H](O)CCC(C)(C)[C@@H]3[C@H](O)[C@H](OC(=O)CCN3C(=O)c4ccccc4C3=O)[C@@]2(C)O1
Meerschweinchen-Vorhof
  EC50: > 3 µg/mL

## C=CC1(C)CC(=O)C2(O)C(C)(O1)C(O)C(OC(=O)CN1CCCC(C)C1)C1C(C)(C)CCC(O)C12C (centres unmarked)
Meerschweinchen-Vorhof
  EC50: 30 µg/mL (≈ 59.1 µM)

## C=CC1(C)CC(=O)C2(O)C(C)(O1)C(O)C(OC(=O)CN1CCCCCC1)C1C(C)(C)CCC(O)C12C (centres unmarked)
Meerschweinchen-Vorhof
  EC50: 1.9 µg/mL (≈ 3.74 µM)

## C=CC1(C)CC(=O)C2(O)C(C)(O1)C(OC(=O)CCCCN1CCCCC1)C(O)C1C(C)(C)CCC(O)C12C (centres unmarked)
Meerschweinchen-Vorhof
  EC50: 30 µg/mL (≈ 56 µM)

## C=CC1(C)CC(=O)C2(O)C(C)(O1)C(OC(=O)C(C)n1cnc3c1c(=O)n(C)c(=O)n3C)C(O)C1C(C)(C)CCC(O)C12C (centres unmarked)
Meerschweinchen-Vorhof
  EC50: 0.9 µg/mL (≈ 1.49 µM)

## C=CC1(C)CC(=O)C2(O)C(C)(O1)C(OC(=O)Cn1nnc3ccccc31)C(O)C1C(C)(C)CCC(O)C12C (centres unmarked)
Meerschweinchen-Vorhof
  EC50: > 30 µg/mL

## C=CC1(C)CC(=O)C2(O)C(C)(O1)C(O)C(OC(=O)CN(C)C1CCCCC1)C1C(C)(C)CCC(O)C12C (centres unmarked)
Augeninnendruck (IOP); [5]
  Senkung des IOP: 27.5%
Augeninnendruck (IOP); Dosis 2 %
  Dauer: 6 Std.

## C=CC1(C)CC(=O)C2(O)C(C)(O1)C(O)C(O)C1C(C)(C)CCC(OC(=O)CN3CCCCC3)C12C (centres unmarked)
Augeninnendruck (IOP); [5]
  Senkung des IOP: 18%
Augeninnendruck (IOP); Dosis 2 %
  Dauer: 2 Std.

## C=CC1(C)CC(=O)C2(O)C(C)(O1)C(OC(=O)Cn1cnc3c1c(=O)n(C)c(=O)n3C)C(O)C1C(C)(C)CCC(O)C12C (centres unmarked)
Augeninnendruck (IOP); [5]
  Senkung des IOP: 21%
Augeninnendruck (IOP); Dosis 2 %
  Dauer: > 6 Std.

## C=CC1(C)CC(=O)C2(O)C(C)(O1)C(OC(=O)C(C)N1CCSCC1)C(O)C1C(C)(C)CCC(OC(=O)C(C)N3CCSCC3)C12C (stereo not drawn) [6β-9α-Dihydroxy, 1α,7β-di(α'-thiomorpholinopropionyloxy)-8,13-epoxy-labd-14-en-one-dihydrochlorid-trihydrat]
Augeninnendruck (IOP); Dosis 1 %
  Senkung des IOP: 19%
  Dauer: 6 Std.

## C=C[C@@]1(C)CC(=O)[C@]2(O)[C@@]3(C)[C@@H](O)CCC(C)(C)[C@@H]3[C@H](O)[C@H](OC(=O)C(C)N3CCOCC3)[C@@]2(C)O1 (some centres unmarked) [the 1st table, row 7]
[1]; [2]
  activation at 0.01 mg: 20%
[1]; [3]
  activation at 0.01 mg: -5%
[1]; [4]
  activation at 0.01 mg: 18%
Meerschweinchen-Vorhof
  Meerschweinchen-Vorhof EC50: 10 µg/mL
Narkotisierter Hund
  ED50: 0.04 mg/kg

## C=C[C@@]1(C)CC(=O)[C@]2(O)[C@@]3(C)[C@@H](O)CCC(C)(C)[C@@H]3[C@H](O)[C@H](OC(=O)C(C)N3CCOCC3)[C@@]2(C)O1 (some centres unmarked) [the 2nd table, row 3]
[1]; [2]
  activation at 0.03 mg: 32%
[1]; [3]
  activation at 0.03 mg: 44%
[1]; [4]
  activation at 0.03 mg: 20%
Meerschweinchen-Vorhof
  Meerschweinchen-Vorhof EC50: 0,266 µg/ml
Narkotisierter Hund
  Narkotisierter Hund dp/dt max ED50: 0,04 mg/kg

## C=CC1(C)CC(=O)C2(O)C(C)(O1)C(O)C(OC(=O)CCCCN1CCCCC1)C1C(C)(C)CCC(O)C12C (centres unmarked) [the 4th table, row 5]
Meerschweinchen-Vorhof
  EC50: 30 µg/mL (≈ 56 µM)

## C=CC1(C)CC(=O)C2(O)C(C)(O1)C(O)C(OC(=O)CCCCN1CCCCC1)C1C(C)(C)CCC(O)C12C (centres unmarked) [the 5th table, row 7]
Augeninnendruck (IOP); Dosis 1 %
  Senkung des IOP: 23%
  Dauer: 6 Std.
